Source: EP0402259A1, “Anthracyclines, process for their preparation and medicaments containing them” (LABORATOIRES HOECHST S.A., priority 1989, dated 1990)
Values after ≈ are worked out from the molar mass of the structure shown.

Assays:
cellules tumorales L1210 = assay: Proliferation test (MTT reduction), L1210; format: cell-based; settings: L1210, 72 h incubation; for IC50: Mus musculus, L1210, 72 h, read-out: CI50 TEST AU MTT L1210
Protocol: (§1) Les témoins consistent en cellules tumorales exposées à un milieu de culture. Quatre puits sont préparés pour chaque concentration en anthracycline et pour le témoin. Après 65 heures. 50 µl de MTT (2,5 mg/ml dans du PBS) sont ajoutés.
(§2) Le MTT sera réduit en présence de cellules vivantes en un colorant formazan rouge insoluble. Après 7 à 24 heures d'incubation supplémentaire (dépendant des cellules utilisées), le surnageant est enlevé. Le colorant formazan est solubilisé par l'addition de 100 ul de DMSO dans chaque puits, suivie d'une agitation douce.
(§3) L'extinction est mesurée pour chaque puits, à 492 nm (photomètre Multiscan 340 CC Fa. Flow).
(§4) Les résultats sont exprimés comme le rapport de l'extinction après incubation avec les anthracyclines sur l'extinction obtenue avec les témoins.

cellules tumorales HT29 = assay: Proliferation test (MTT reduction), HT29; format: cell-based; settings: HT 29, 72 h incubation; for IC50: Homo sapiens, HT-29, 72 h, read-out: CI50 TEST AU MTT HT 29
Protocol: as §1, §2, §3, §4

cellules tumorales A549 = assay: Proliferation test (MTT reduction), A549; format: cell-based; settings: A 549, 72 h incubation; for IC50: Homo sapiens, A549, 72 h, read-out: CI50 TEST AU MTT A 549
Protocol: as §1, §2, §3, §4

HT29 = assay: Xenograft (subrenal capsule assay), HT29 colon tumour; format: in vivo
L1210 = assay: In vivo L1210 leukemia, survival time (T/C); set-up: species or system souris BDF1
Protocol: Un liquide d'ascite est prélevé dans des conditions aseptiques chez des souris DBA2 (femelle, 18 -20 g) le septième jours après l'implantation.
L'ascite est lavée trois fois avec du PBS, comptée et finalement diluée dans du PBS, de manière à obtenir 10^6 cellules/0,2 ml.
10^6 cellules dans 0,2 ml de PBS sont injectées dans le peritoine de souris DBA2 pour la propagation de la lignée cellulaire.
10^6 cellules dans 0,2 ml de PBS sont injectés intrapéritonéalement à des souris BDF1 (femelle 18 -20 g), 6 animauxigroupe sont utilisés pour chaque concentration de substance et pour le contrôle.
• a) les animaux sont pesés le premier jour et le cinquième jour après l'administration du médicament.
A partir du temps de survie moyen des groupes traités (MSTT) et des groupes contrôle (MSTc), l'effet antitumoral (T/C) est évalué en fonction de la formule suivante : [formula]

A549 = assay: Xenograft (subrenal capsule assay), A549; format: in vivo
LXF = assay: Xenograft (subrenal capsule assay), LXF lung tumour; format: in vivo; settings: for Xénogreffes LXF: grades not defined
[1] = L1210 i.p. in BDF1 mice, schedule 3 i.v.

| Compound | CI50 TEST AU MTT L1210 (cellules tumorales L1210) | CI50 TEST AU MTT HT 29 (cellules tumorales HT29) | CI50 TEST AU MTT A 549 (cellules tumorales A549) | IC50 (cellules tumorales L1210) [µg/mL] | IC50 (cellules tumorales HT29) [µg/mL] | IC50 (cellules tumorales A549) [µg/mL] | dose optimale (L1210; [1]) | Xénogreffes LXF (LXF) | other results |
| --- | --- | --- | --- | --- | --- | --- | --- | --- | --- |
| C[C@@H]1O[C@@H](O[C@H]2C[C@](O)(CO)Cc3c(O)c4c(c(O)c32)C(=O)c2ccccc2C4=O)C[C@H](O)[C@@H]1N [compound 12, (S)-cis-1-O-{4 amino-2,4,6-trideoxy-α-L-lyxo-hexopyranosyl)-1,2,3,4,6,11-hexahydro-1,3,5,12-tétrahydroxy-3-hydroxyméthyl-6,11-naphtacène dione] | 0,021 µg/ml | 0,03 µg/ml | 0,24 µg/ml |  |  |  |  |  |  |
| C[C@@H]1O[C@@H](O[C@H]2C[C@](O)(CO)Cc3c(O)c4c(c(O)c32)C(=O)c2ccccc2C4=O)C[C@H](O)[C@@H]1N=[N+]=[N-] [compound 6] |  |  |  | 0.13 (≈ 0.254 µM) | 0.46 (≈ 0.899 µM) | 0.24 (≈ 0.469 µM) |  |  |  |
| C[C@@H]1O[C@@H](O[C@H]2C[C@](O)(CO)Cc3c(O)c4c(c(O)c32)C(=O)c2ccccc2C4=O)C[C@H](O)[C@@H]1N1CCOCC1 [compound 14, (S)-cis-1-O-{4-morpholino-2,4,6-tridésoxy-α-L-lyxo-hexopyranosyl)-1,2,3,4,6,11-hexahydro-1,3,5,12-tétrahydroxy-3-hydroxyméthyl-6,11-naphtacène dione] |  |  |  | 0.15 (≈ 0.27 µM) | 0.13 (≈ 0.234 µM) | 0.054 (≈ 0.0972 µM) |  |  |  |
| COc1cccc2c1C(=O)c1c(O)c3c(c(O)c1C2=O)C[C@@](O)(C(=O)CO)C[C@@H]3O[C@H]1C[C@H](N)[C@H](O)[C@H](C)O1 [doxorubicine, reference compound] |  |  |  |  |  |  | 8,1 mg/kg/Inj. | + + + | Xénogreffes HT29 (HT29; grades not defined): + +; Xénogreffes A549 (A549; grades not defined): + + |
| C[C@@H]1O[C@@H](O[C@H]2C[C@](O)(CO)Cc3c(O)c4c(c(O)c32)C(=O)c2ccccc2C4=O)C[C@H](O)[C@@H]1N [Composé 13, chlorhydratede (S)-cis-1-O-(4-amino-2,4,6-trideoxy-α-L-lyxo-hexopyranosyl)-1,2.3.4,6.11-hexahydro-1,3,5,12-tétrahydroxy-3-hydroxyméthyl-6,11-naphtacène dione] | 0,009 µg/ml | 0,01 µg/ml | 0,009 µg/ml |  |  |  | 3,1 mg/kg/Inj. | + + | activité sur tumeur du colon (HT29) (HT29; in words): à un moindre degré; T/C % (L1210; L1210 i.p. in BDF1 mice, schedule 3 i.v., at optimal dose, T/C above 125 % = significant antitumour effect): 133%; activité antitumorale (L1210; in words, at a dose about three times lower than that of doxorubicine): activité antitumorale non négligeable; activité sur la lignée cellulaire A549 (A549; in words): à un moindre degré; activité sur tumeur du poumon (LXF) (LXF; in words): actif |
| C[C@@H]1O[C@@H](O[C@H]2C[C@](O)(CO)Cc3c(O)c4c(c(O)c32)C(=O)c2ccccc2C4=O)C[C@H](O)[C@@H]1NC(=O)C(F)(F)F [compound 11] |  |  |  | 0.015 (≈ 0.0258 µM) | 0.026 (≈ 0.0447 µM) | 0.011 (≈ 0.0189 µM) |  |  |  |
